Legend:
[1] = molecular target: Bovine Serum Albumin (BSA) (Bos taurus, UniProt P02769); assay: Bovine Serum Albumin Assay (BSA), inhibition of heat-induced protein denaturation (in vitro anti-inflammatory activity); assay type: biochemical
Experimental: Bovine Serum Albumin Assay (BSA) In vitro-inflammatory activities of the tested samples were determined using a modified method of the BSA assay reported by Williams et al. BSA solution (0.4%, w/v) was prepared in Tris Buffered Saline. The pH was adjusted to 6.4 with glacial acetic acid. Different dilutions of 20, 40, 60, 80, and 100 pg/mL of the stock solutions of 7-(4((4-benzylidene-5-oxo-2-phenyl-4,5-dihydro-1H-imidazol-1-yl)methyl)piperazin-1-yl)-1-cyclopropyl-6-fluoro-4-oxo-1,4-dihydroquinoline-3-carboxylic acid (4) were added to test tubes containing 1 mL of 0.4%, w/v BSA buffer solution. Both negative (solvent) and positive (aspirin) controls were assayed in a similar manner. The solutions were then heated in a water bath at 72° C. for 10 minutes and cooled for 20 minutes under laboratory conditions. The turbidity of the solutions (level of protein precipitation) was measured at 660 nm in Spectrophotometer (V-770 UV-Visible/NIR Spectrophotometer). The percentage inhibition of precipitation (protein denaturation) was determined relative to the negative control using the following equation: [formula] [formula]

Chain of Bovine Serum Albumin (BSA) (P02769 25-607): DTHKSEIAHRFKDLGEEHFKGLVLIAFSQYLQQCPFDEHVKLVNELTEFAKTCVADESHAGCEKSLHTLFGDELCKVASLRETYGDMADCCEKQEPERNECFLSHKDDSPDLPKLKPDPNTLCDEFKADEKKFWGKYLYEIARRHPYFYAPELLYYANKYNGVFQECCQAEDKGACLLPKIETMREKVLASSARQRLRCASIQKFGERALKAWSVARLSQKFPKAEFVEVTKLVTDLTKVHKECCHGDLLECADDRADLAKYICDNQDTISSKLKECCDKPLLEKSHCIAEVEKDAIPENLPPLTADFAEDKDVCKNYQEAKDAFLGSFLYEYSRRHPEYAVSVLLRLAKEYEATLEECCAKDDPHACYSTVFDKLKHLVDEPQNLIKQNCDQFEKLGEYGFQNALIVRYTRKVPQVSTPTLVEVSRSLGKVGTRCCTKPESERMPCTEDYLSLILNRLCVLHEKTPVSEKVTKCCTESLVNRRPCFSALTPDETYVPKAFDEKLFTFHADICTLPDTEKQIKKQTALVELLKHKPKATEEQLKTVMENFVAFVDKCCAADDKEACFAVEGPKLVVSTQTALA

SMILES | in vitro anti-inflammatory activity (result in words) ([1]; BSA assay) | percentage inhibition of precipitation (protein denaturation) ([1]; bovine, 10 min, 100 pg/mL, pH 6.4) | melting point | percentage inhibition of precipitation (protein denaturation) ([1]; 100 pg/ml (concentration printed for aspirin), 0.4% w/v BSA, pH 6.4, 72° C. for 10 minutes, turbidity at 660 nm, relative to negative control)
O=C(O)c1cn(C2CC2)c2cc(N3CCN(CN4C(=O)/C(=C\c5ccccc5)N=C4c4ccccc4)CC3)c(F)cc2c1=O [Compound 4, 7-(4-((4-benzylidene-5-oxo-2-phenyl-4,5-dihydro-1H-imidazol-1-yl)methyl)piperazin-1-yl)-1-cyclopropyl-6-fluoro-4-oxo-1,4-dihydroquinoline-3-carboxylic acid] | considerable anti-inflammatory effect | 84.78% | 232 to 234 °C | –
CC(=O)Oc1ccccc1C(=O)O [aspirin, reference compound] | – | – | – | 90.75%

Source: US11884651B1, “7-(4-((4-benzylidene-5-oxo-2-phenyl-4,5-dihydro-1H-imidazol-1-yl)methyl)piperazin-1-yl)-1-cyclopropyl-6-fluoro-4-oxo-1,4-dihydroquinoline-3-carboxylic acid as an anti-inflammatory compound” (KING FAISAL UNIVERSITY, priority 2023, dated 2024)
